Drawing on patent US20240124454A1, “TRICYCLIC COMPOUND AND USE THEREOF” (NANJING ZAIMING PHARMACEUTICAL CO., LTD., priority 2020, published 2024), this text covers IC50 for three molecules.

Read-outs that look alike come from different tables or passages of the source.

One experiment relates to HCT116 WT cells. The experiment is described as follows: Cell proliferation inhibition test (Cell-Titer Glo), HCT116 WT. It is filed as cell-based, human. Conditions: Homo sapiens, HCT-116, 144 h, 6 days, read-out: HCT116 WT Antiproliferative activity IC50. Here is the method:
(§1) Test Example 3. Cell Proliferation Inhibition Test of Human Colon Cancer HCT116 WT Cells and HCT116 MTAP-1-Cells
(§2) The brief introduction of the test principle: After the test MAT2A inhibitor was incubated with cancer cells for a period of time, the effect of the test compound on cell proliferation was measured using a cell proliferation count method based on the ATP content.
(§3) Reference: The experiment referred to the method disclosed in patent WO2018045071.
(§4) Material and cell: HCT116 WT cells and HCT116 MTAP^−/− cells were purchased from KYinno; fetal bovine serum, McCoy's 5a culture medium, and penicillin-streptomycin were purchased from Gibco Company (U.S.), 96-well plates were purchased from Corning Company (U.S.), and the Cell-Titer Glo reagent was purchased from Promega Company (U.S.).
(§5) Cell culture: HCT116 WT cells and HCT116 MTAP^−/− cells were cultured with a McCoy's 5a medium containing 10% fetal bovine serum+1% penicillin-streptomycin at 37° C. with 5% CO2.
(§6) Cells at logarithmic growth phase were available for the experiment.
(§7) Cell proliferation activity test: The Cell-Titer Glo reagent was used to test the compound for inhibitory activity on proliferation of both HCT116 WT and HCT116 MTAP^−/− cell strains. The cells were adjusted to a concentration of 400 cells per well, seeded on a 96-well plate, and incubated overnight at 37° C. with 5% CO2.
(§8) In the experimental group, the test compound was diluted sequentially with DMSO and a culture medium, and transferred to a cell plate at a final concentration of 10 μM, 3-fold dilution. The cells were continuously cultured at 37° C. with 5% CO2 for 6 days. The Cell-Titer Glo reagent was added and the cell activity was measured.
(§9) A negative control group and a positive control group were respectively used as Bottom and Top. The negative control group was not added with cells, only added with the culture medium in the same volume, and other operations were consistent with those of the experimental group. The positive control group was not added with the test compound, only added with DMSO in the same volume, and other operations were consistent with those of the experimental group.
(§10) The % Compound inhibition was calculated and fitted to give the IC50 of the compound.
(§11) % Compound inhibition=1-100%×(Signal−Bottom)/(Top−Bottom).
(§12) Signal referred to the signal value of the experimental group, Bottom referred to the average signal value of the negative control group, and Top referred to the average signal value of the positive control group.
(§13) HCT116 MTAP^−/− cells are cells not expressing MTAP protein obtained by site-directed knockout of wild type HCT116 (HCT116 WT) cells by gene knockout. Synthetic lethality will occur due to MAT2A inhibition and the deletion of MTAP, thereby causing tumor cell death. The activity and selectivity of the MAT2A inhibitor can be evaluated by testing the antiproliferative activity of the MAT2A inhibitor on human colon cancer HCT116 MTAP^−/− cells and human colon cancer HCT116 WT.

The test system of experiment [1] is HCT116 MTAP^−/− cells. Put plainly: Determination of intracellular SAM level by LC-MS/MS. It is filed as cell-based. Conditions: Homo sapiens, HCT-116, 6 h, read-out: SAM production inhibitory activity IC50. Here is the method:
Test Example 2. Determination of Intracellular SAM Level
The brief introduction of the test principle: After the test MAT2A inhibitor was incubated with cancer cells for a period of time, the cells were lysed with a stop reagent to quench the activity of the MAT2A enzyme. The catalytic product SAM of MAT2A in the cell lysate was quantitatively determined by LC-MS/MS, and thus the activity of MAT2A in the cell was reflected.
as §3
Material and cell: HCT116 MTAP^−/− cells were purchased from KYinno; fetal bovine serum, McCoy's 5a culture medium, and penicillin-streptomycin were purchased from Gibco Company (U.S.), and 96-well plates were purchased from Corning Company (U.S.).
Cell culture: HCT116 MTAP^−/− cells were cultured with a McCoy's 5a medium containing 10% fetal bovine serum+1% penicillin-streptomycin at 37° C. with 5% CO2. Cells at logarithmic growth phase were available for the experiment.
LC-MS/MS detection: The effect of the compound on the SAM production level in HCT116 MTAP^−/− cell strains was detected by LC-MS/MS. The cells were adjusted to a concentration of 50000 cells per well, seeded on a 96-well plate, and incubated overnight at 37° C. with 5% CO2. In the experimental group, the test compound was dissolved in DMSO, diluted sequentially with DMSO and a culture medium, and transferred to a cell plate at a final concentration of 10 μM, 3-fold dilution. The cells were continuously cultured at 37° C. with 5% CO2 for 6 h. The supernatant was pipetted off. After the cells were washed once with PBS, glacial acetic acid was added to lyse the cells. After the lysate was processed, the SAM concentration was determined by LC-MS/MS analysis.
A negative control group and a positive control group were respectively used as Bottom and Top. The negative control group was added with 10 μM positive compound (compound 072 of Example 51 of patent WO2021139775A1) in the same volume, and other operations were consistent with those of the experimental group. The positive control group was not added with the test compound, only added with DMSO in the same volume, and other operations were consistent with those of the experimental group.
as §10
% Compound inhibition=1−100%×(Signal−Bottom)/(Top−Bottom)
as §12

Experiment [2] deals with HCT116 MTAP^−/− cells. The experiment is described as follows: Cell proliferation inhibition test (Cell-Titer Glo), HCT116 MTAP−/−. It is filed as cell-based, human. Conditions: Homo sapiens, HCT-116, 144 h, 6 days, read-out: HCT116 MTAP−/− Antiproliferative activity IC50. As to the method:
as §1, §2, §3, §4, §5, §6, §7, §8, §9, §10, §11, §12, §13

The target in another experiment is MAT2A (Homo sapiens (Human), UniProt P31153). The experiment is described as follows: MAT2A biochemical test (inorganic phosphate colorimetric, PiColorLock). The settings on record: read-out: MAT2A inhibitory Activity IC50. An outline of the steps:
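Compounds tested from 10 μM top concentration in 3-fold dilutions, preincubated 120 min at room temperature with MAT2A ([…] final) in Tris/KCl/MgCl2/EDTA/BSA buffer. Reaction started with […] L-methionine and 400 μM ATP, run 90 min at room temperature; phosphate read by PiColorLock after 30 min. IC50 fitted from % inhibition versus no-enzyme and DMSO controls.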

Sequence of MAT2A (P31153 whole entry): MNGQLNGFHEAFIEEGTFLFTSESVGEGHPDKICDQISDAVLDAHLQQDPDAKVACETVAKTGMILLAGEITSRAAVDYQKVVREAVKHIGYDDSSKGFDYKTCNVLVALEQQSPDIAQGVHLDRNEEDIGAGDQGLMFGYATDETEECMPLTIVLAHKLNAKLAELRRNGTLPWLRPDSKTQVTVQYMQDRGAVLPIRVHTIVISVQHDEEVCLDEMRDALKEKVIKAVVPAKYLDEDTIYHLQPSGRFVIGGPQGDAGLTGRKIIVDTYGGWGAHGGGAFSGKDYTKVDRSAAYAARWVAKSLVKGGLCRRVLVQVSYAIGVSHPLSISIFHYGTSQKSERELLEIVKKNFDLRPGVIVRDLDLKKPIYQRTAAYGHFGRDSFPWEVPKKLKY

On to `Cn1cnc2c(=O)n(-c3ccccc3Cl)c3nc(C(F)(F)F)ccc3c21` [Compound 2, 5-(2-chlorophenyl)-1-methyl-7-(trifluoromethyl)-1,5-dihydro-4H-imidazo[4,5-c][1,8]naphthyridin-4-one], for which the IC50 in the experiment on HCT116 WT cells is 4770 nM; in the experiment with HCT116 MTAP^−/− cells [1] it was 7.4 nM; in the experiment on HCT116 MTAP^−/− cells [2], 529 nM; on MAT2A (class symbols), under 100 nM; on MAT2A (numeric values), 69.3 nM.

Take `Cc1cccc(-n2c(=O)c3ncn(C)c3c3ccc(C(F)(F)F)nc32)c1Cl` [Compound 36, 5-(2-chloro-3-methylphenyl)-1-methyl-7-(trifluoromethyl)-1,5-dihydro-4H-imidazo[4,5-c][1,8]naphthyridin-4-one]: the IC50 in the experiment on HCT116 WT cells is 9970 nM; with HCT116 MTAP^−/− cells [1] it was 5.6 nM; in the experiment with HCT116 MTAP^−/− cells [2], 81.5 nM; at MAT2A (class symbols), under 100 nM; at MAT2A (numeric values), 52.6 nM.

With `Cn1cnc2c(=O)n(-c3cccc(Cl)c3Cl)c3nc(C(F)(F)F)ccc3c21` [Compound 37, 5-(2,3-dichlorophenyl)-1-methyl-7-(trifluoromethyl)-1,5-dihydro-4H-imidazo[4,5-c][1,8]naphthyridin-4-one], the IC50 is 9060 nM in the experiment on HCT116 WT cells; 8.8 nM in the experiment on HCT116 MTAP^−/− cells [1]; 169 nM in the experiment on HCT116 MTAP^−/− cells [2]; under 100 nM at MAT2A (class symbols); 48.3 nM at MAT2A (numeric values).
